Results published in PMC10384408, “Anticancer Tungstenocenes with a Diverse Set of (O,O–), (O,S–) and (O,N–) Chelates—A Detailed Biological Study Using an Improved Evaluation via 3D Spheroid Models” (Pharmaceutics, 2023).

Key:
HT29 cells [1] = test: Annexin V-FITC/PI apoptosis assay, HT29; conditions: HT29, 24 h; for ∑apoptotic cells [%]: sum of early and late
[2] = test system: A549 (non-small cell lung carcinoma) cells; test: MTT cytotoxicity assay, A549 monolayer; type: cell-based, human; conditions: exposure time 96 h, mean ± SD
Method: (§1) CH1/PA-1 (ovarian teratocarcinoma), SW480 (colon carcinoma) and A549 (non-small cell lung cancer) cells were maintained as described in the reference. IMR-90 human fetal lung fibroblasts (from the European Collection of Authenticated Cell Cultures, Porton Down, Salisbury, UK) were cultured in Stable Cell^TM DMEM/F12 supplemented with 0.01 mg/mL human recombinant insulin (both purchased from Sigma-Aldrich) and 10% fetal bovine serum (FBS, BioWest, Nuaillé, France). Human colon carcinoma cell lines HCT116 and HT29 (both kindly provided by the Institute of Cancer Research, Department of Medicine I, Medical University of Vienna, Austria) were cultured in McCoy’s 5a medium supplemented with 4 mM L-glutamine (both purchased from Sigma-Aldrich) and 10% FBS. MCF-7 human breast adenocarcinoma cells (kindly provided by M. Ogris, Department of Pharmaceutical Sciences, University of Vienna, Austria) were maintained in DMEM (high glucose) supplemented with 4 mM L-glutamine, 0.1 mg/mL human insulin (all purchased from Sigma-Aldrich) and 10% FBS. All cell lines were grown as monolayers in 75 cm^2 culture flasks (CytoOne, Starlab, Hamburg, Germany) at 37 °C in a humidified atmosphere containing 5% CO2.
Exponentially growing cells were plated into 96-well microculture plates (CytoOne, tissue culture treated, Starlab, Hamburg, Germany) in densities of 1 × 10^3 CH1/PA-1, 2 × 10^3 SW480, 3 × 10^3 A549 and 7 × 10^3 IMR-90 cells per well (each in 100 µL). After a 24 h preincubation, drugs were added in serial dilution to give a final volume of 200 µL/well and exposed for 96 h. At the end of the exposure, the drug solutions were replaced by 100 µL RPMI 1640/MTT mixture (7:1 ratio). MTT (3-(4,5-dimethylthiazol-2-yl)-2,5-diphenyl-2H-tetrazolium bromide), (Acros Organics, Geel, Belgium) solution was prepared in phosphate-buffered saline (5 mg/mL) and mixed with RPMI1640 medium supplemented with 4 mM L-glutamine (both from Sigma-Aldrich) and 10% FBS. After 4 h incubation, the formazan crystals were solubilized in 150 µL of DMSO per well. Absorbance was measured at 550 nm (and at 690 nm as a reference) with a microplate reader (ELx808, BioTek, Winoosky, VT, USA) and Gen5^TM 3.08 software (BioTek). The 50% inhibitory concentrations (IC50) relative to untreated controls were interpolated from concentration-effect curves. At least three biologically and technically independent experiments were performed.

HT29 cells [3] = test: Resazurin assay, HT29 2D monolayer; type: cell-based, human; conditions: 96 h
Method: as §1
For the resazurin assay in monolayer cultures, cells were seeded into 96-well microculture plates (CytoOne, tissue culture treated, Starlab, Hamburg, Germany) in densities of 2 × 10^3 HCT116, 2 × 10^3 HT29 and 4 × 10^3 MCF-7 cells per well (each in 100 µL). For tests in 3D cultures, spheroids were grown as described above. After 24 h (for monolayers) or 4 days (for spheroids) the test compounds in the appropriate medium were added in serial dilution to the plates to obtain a total volume of 200 µL/well. Wells without cells, containing medium and resazurin (Alfa Aesar, Thermo Fisher, Kandel, Germany) solution were used as blanks. After 96 h exposure 20 µL of the resazurin solution (440 µM) were added to each well, followed by a 4 h (2D) or 12 h (3D) incubation period. Resorufin fluorescence was quantified at 530 nm (and a reference wavelength of 620 nm) by using a microplate reader (Synergy HT, BioTek) with Gen5^TM 3.10 software (BioTek).

[4] = Cyclic voltammetry in MeCN (W(IV) to W(V)); type: physicochemical; conditions: vs. NHE, scan rate 200 mV/s
Method: NMR spectra were recorded with a Bruker FT-NMR Avance III^TM 500 MHz spectrometer at 500.10 (^1H), and 125.75 MHz (^13C) using DMSO–d6. 2D-NMR measurements were recorded utilizing standard pulse programs COSY, HSQC and HMBC. The Microanalytical Laboratory of the University of Vienna performed the elemental analyses with a Eurovector EA 3000(2009) equipped with a high temperature pyrolysis furnace (HT, Hekatech, Germany, 2009). Elemental analyses’ samples were weighed (weights from 1–3 mg were used) on a Sartorius SEC 2 ultra-micro balance with ±0.1 µg resolution. Two NIST-certified reference materials were used for calibration: sulfanilamide (C6H8N2O2S) and BBOT (2,5-bis-(5-tert-butyl-2-benzoxazol-2-yl)-thiophenone, C26H26N2O2S). The limit of quantification (LOQ) was 0.05 w% for C, H, N and 0.02 w% for S. For samples without N and/or S, the content of these elements was determined and verified to be below the LOQ. X-ray diffraction analyses were carried out on a Bruker X8 APEX II CCD diffractometer at 100 K. ESI-MS were recorded on a Bruker AmaZon SL ion trap mass spectrometer (Bruker Daltonics GmbH). Data were obtained and processed with Compass 1.3 and Data Analysis 4.0 (Bruker Daltonics GmbH). Infrared spectra were attained on a Bruker Vertex 70 FT-IR-spectrometer with an ATR-unit (attenuated total reflection unit) in the range of 4000–600 cm^−1. Intensities of the reported bands are described with w for weak, m for medium and s for strong; broad signals are additionally specified with the letter b in front of these abbreviations. Cyclic voltammograms (CVs) were measured in a three-electrode cell using 2 mm diameter glassy carbon disk working electrode, a platinum auxiliary electrode and an Ag|Ag^+ reference electrode containing 0.1 M AgNO3. Measurements were carried out at room temperature using an EG&G PARC potentiostat/galvanostat 273A. The solutions were deoxygenized by purging a stream of argon for 3 min through the solution and the experiment was performed under an argon atmosphere. The potentials were measured in a freshly prepared solution of (n Bu4N)[BF4] (0.1 M) in acetonitrile using ferrocene (Fe(η^5-C5H5)2) (E1/2 = +0.72 V vs. NHE) as an internal standard and are quoted relative to the normal hydrogen electrode (NHE).
The electrochemical behavior of all complexes and the precursor Cp2WCl2 was studied by cyclic voltammetry with a scan rate of 200 mV/s, from −0.5 to +1.2 or +1.5 V. Measurements were performed in triplicate. Due to low water solubility of compounds 1–10 acetonitrile (MeCN) was utilized in order to reach the 2 mM concentration.

## CCc1occc(=S)c1[O-].F[P-](F)(F)(F)(F)F.[W+4].c1cc[cH-]c1.c1cc[cH-]c1 [Compound 10, Bis(η^5-cyclopentadienyl)[2-ethyl-3-(oxo-κO)-4-(1H)-pyran-4-thionato-κS] tungsten(IV) hexafluorophosphate]
HT29 cells [1]; 200 µM
  early apoptotic cells [%] AV+ / PI-: 3.1 ± 2.8%
  late apoptotic cells [%] AV+ / PI+: 5.1 ± 5.2%
  necrotic cells [%] AV- / PI+: 2.3 ± 0.9%
  viable cells [%] AV- / PI-: 89.5 ± 8.5%
  ∑apoptotic cells [%]: 8.2%
[2]
  IC50: 53 ± 8 µM
HT29 cells [3]
  IC50: 54 ± 2 µM
[4]
  E1/2: 1.064 V

## F[P-](F)(F)(F)(F)F.O=c1c([O-])c(-c2ccc(Cl)cc2)oc2ccccc12.[W+4].c1cc[cH-]c1.c1cc[cH-]c1 [Compound 3, Bis(η^5-cyclopentadienyl)[2-(4-chlorophenyl)-3-(oxo-κO)-4(H)-chromen-4-oato-κO]tungsten(IV) hexafluorophosphate]
HT29 cells [1]; 2 µM
  early apoptotic cells [%] AV+ / PI-: 4.6 ± 4.1%
  late apoptotic cells [%] AV+ / PI+: 7.2 ± 3.8%
  necrotic cells [%] AV- / PI+: 5.1 ± 4.2%
  viable cells [%] AV- / PI-: 83.0 ± 3.8%
  ∑apoptotic cells [%]: 11.8%
HT29 cells [1]; 20 µM
  early apoptotic cells [%] AV+ / PI-: 8.6 ± 2.5%
  late apoptotic cells [%] AV+ / PI+: 11.1 ± 1.0%
  necrotic cells [%] AV- / PI+: 5.4 ± 1.2%
  viable cells [%] AV- / PI-: 74.9 ± 3.3%
  ∑apoptotic cells [%]: 19.7%
HT29 cells [1]; 200 µM
  early apoptotic cells [%] AV+ / PI-: 0.8 ± 0.5%
  late apoptotic cells [%] AV+ / PI+: 82.2 ± 4.1%
  necrotic cells [%] AV- / PI+: 14.9 ± 2.8%
  viable cells [%] AV- / PI-: 2.2 ± 1.3%
[2]
  IC50: 19 ± 3 µM
HT29 cells [3]
  IC50: 17 ± 4 µM
[4]
  E1/2: 1.059 V

## Cc1cc(=O)c([O-])co1.F[P-](F)(F)(F)(F)F.[W+4].c1cc[cH-]c1.c1cc[cH-]c1 [Compound 7, Bis(η^5-cyclopentadienyl)[2-methyl-5-(oxo-κO)-4-(1H)-pyran-4-ato-κO] tungsten(IV) hexafluorophosphate]
HT29 cells [1]; 200 µM
  early apoptotic cells [%] AV+ / PI-: 3.0 ± 1.6%
  late apoptotic cells [%] AV+ / PI+: 5.5 ± 1.9%
  necrotic cells [%] AV- / PI+: 3.1 ± 2.3%
  viable cells [%] AV- / PI-: 88.4 ± 3.8%
  ∑apoptotic cells [%]: 8.5%
[2]
  IC50: > 200 µM
HT29 cells [3]
  IC50: > 200 µM
[4]
  E1/2: 1.071 V

## Cc1c([O-])c(=O)ccn1C.F[P-](F)(F)(F)(F)F.[W+4].c1cc[cH-]c1.c1cc[cH-]c1 [Compound 6, Bis(η^5-cyclopentadienyl)[1,2-dimethyl-3-(oxo-κO)-4-(1H)-pyridonato-κO]tungsten(IV) hexafluorophosphate]
HT29 cells [1]; 200 µM
  early apoptotic cells [%] AV+ / PI-: 4.3 ± 1.8%
  late apoptotic cells [%] AV+ / PI+: 4.2 ± 0.6%
  necrotic cells [%] AV- / PI+: 2.4 ± 0.7%
  viable cells [%] AV- / PI-: 89.1 ± 0.4%
  ∑apoptotic cells [%]: 8.5%
[2]
  IC50: 141 ± 36 µM
HT29 cells [3]
  IC50: > 200 µM
[4]
  E1/2: 0.885 V

## F[P-](F)(F)(F)(F)F.[O-]c1c(-c2ccc(Cl)cc2)oc2ccccc2c1=S.[W+4].c1cc[cH-]c1.c1cc[cH-]c1 [Compound 4, Bis(η^5-cyclopentadienyl)[2-(4-chlorophenyl)-3-(oxo-κO)-4(H)-chromen-4-thionato-κS]tungsten(IV) hexafluorophosphate]
HT29 cells [1]; 2 µM
  early apoptotic cells [%] AV+ / PI-: 3.7 ± 3.2%
  late apoptotic cells [%] AV+ / PI+: 4.8 ± 1.3%
  necrotic cells [%] AV- / PI+: 5.4 ± 5.0%
  viable cells [%] AV- / PI-: 86.2 ± 3.1%
  ∑apoptotic cells [%]: 8.5%
HT29 cells [1]; 20 µM
  early apoptotic cells [%] AV+ / PI-: 16.8 ± 5.2%
  late apoptotic cells [%] AV+ / PI+: 19.5 ± 2.0%
  necrotic cells [%] AV- / PI+: 13.3 ± 5.1%
  viable cells [%] AV- / PI-: 50.4 ± 4.1%
[2]
  IC50: 6.3 ± 0.5 µM
HT29 cells [3]
  IC50: 5.5 ± 1 µM
[4]
  E1/2: 1.082 V

## Cc1cc(=S)c([O-])co1.F[P-](F)(F)(F)(F)F.[W+4].c1cc[cH-]c1.c1cc[cH-]c1 [Compound 8, Bis(η^5-cyclopentadienyl)[2-methyl-5-(oxo-κO)-pyran-4-(1H)-thionato-κS] tungsten(IV) hexafluorophosphate]
HT29 cells [1]; 200 µM
  early apoptotic cells [%] AV+ / PI-: 3.3 ± 2.1%
  late apoptotic cells [%] AV+ / PI+: 6.2 ± 4.1%
  necrotic cells [%] AV- / PI+: 2.1 ± 0.9%
  viable cells [%] AV- / PI-: 88.4 ± 3.6%
  ∑apoptotic cells [%]: 9.5%
[2]
  IC50: > 200 µM
HT29 cells [3]
  IC50: > 200 µM
[4]
  E1/2: 1.080 V

## F[P-](F)(F)(F)(F)F.O=C([O-])c1ccccn1.[W+4].c1cc[cH-]c1.c1cc[cH-]c1 [Compound 5, Bis(η^5-cyclopentadienyl)[2-(carboxylato-κO)-pyridine-κN]tungsten(IV) hexafluorophosphate]
HT29 cells [1]; 200 µM
  early apoptotic cells [%] AV+ / PI-: 0.9 ± 0.7%
  late apoptotic cells [%] AV+ / PI+: 5.3 ± 6.9%
  necrotic cells [%] AV- / PI+: 2.3 ± 1.5%
  ∑apoptotic cells [%]: 6.2%
[2]
  IC50: > 200 µM
HT29 cells [3]
  IC50: > 200 µM
[4]
  E1/2: 1.330 V

## CCc1occc(=O)c1[O-].F[P-](F)(F)(F)(F)F.[W+4].c1cc[cH-]c1.c1cc[cH-]c1 [Compound 9, Bis(η^5-cyclopentadienyl)[2-ethyl-3-(oxo-κO)-4-(1H)-pyran-4-ato-κO] tungsten(IV) hexafluorophosphate]
HT29 cells [1]; 200 µM
  early apoptotic cells [%] AV+ / PI-: 0.9 ± 0.6%
  late apoptotic cells [%] AV+ / PI+: 3.9 ± 4.5%
  necrotic cells [%] AV- / PI+: 2.3 ± 1.3%
  viable cells [%] AV- / PI-: 92.9 ± 5.8%
  ∑apoptotic cells [%]: 4.8%
[2]
  IC50: > 200 µM
HT29 cells [3]
  IC50: > 200 µM
[4]
  E1/2: 1.038 V
